Reference: US20260042762A1 (Kymera Therapeutics, Inc., priority 2018, published 2026)

The molecules below were run against T1, MerTK (Homo sapiens, UniProt Q12866) (assay: MerTk degradation in Jurkat cells (Western blot)). Conditions: Jurkat, 4 h, 0.001-1 μM, 4 hour-incubation at 37° C., read-out: Jurkat Max % MerTK Degradation.
T1 construct: endogenous in cells; host or cells: Jurkat cells
T1 sequence (Q12866 21-999): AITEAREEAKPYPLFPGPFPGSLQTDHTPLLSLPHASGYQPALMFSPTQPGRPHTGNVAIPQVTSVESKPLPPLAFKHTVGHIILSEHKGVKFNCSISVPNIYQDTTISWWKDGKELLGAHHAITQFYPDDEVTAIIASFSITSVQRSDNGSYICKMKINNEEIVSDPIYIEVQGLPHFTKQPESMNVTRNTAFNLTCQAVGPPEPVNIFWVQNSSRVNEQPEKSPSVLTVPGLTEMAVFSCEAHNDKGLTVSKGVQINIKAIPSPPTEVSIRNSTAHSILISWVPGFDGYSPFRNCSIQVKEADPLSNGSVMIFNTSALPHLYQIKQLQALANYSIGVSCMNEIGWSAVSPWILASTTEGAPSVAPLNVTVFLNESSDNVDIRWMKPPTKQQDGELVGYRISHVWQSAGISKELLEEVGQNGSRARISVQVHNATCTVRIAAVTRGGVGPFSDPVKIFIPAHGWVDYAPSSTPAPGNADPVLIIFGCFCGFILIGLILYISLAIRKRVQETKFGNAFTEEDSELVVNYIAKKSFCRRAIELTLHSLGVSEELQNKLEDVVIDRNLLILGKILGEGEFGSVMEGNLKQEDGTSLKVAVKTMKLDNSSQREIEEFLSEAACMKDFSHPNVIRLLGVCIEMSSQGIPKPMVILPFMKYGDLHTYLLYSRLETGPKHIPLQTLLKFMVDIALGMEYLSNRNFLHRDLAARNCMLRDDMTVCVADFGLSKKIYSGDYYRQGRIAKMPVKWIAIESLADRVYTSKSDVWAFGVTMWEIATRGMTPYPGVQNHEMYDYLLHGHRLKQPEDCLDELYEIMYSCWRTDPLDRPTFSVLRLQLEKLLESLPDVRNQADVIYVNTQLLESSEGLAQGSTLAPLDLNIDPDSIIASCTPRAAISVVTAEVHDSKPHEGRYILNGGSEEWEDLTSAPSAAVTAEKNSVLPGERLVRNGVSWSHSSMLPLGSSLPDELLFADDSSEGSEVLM
Assay type: cell-based
Method in brief: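 Jurkat cells treated 4 h at 37 °C with compound at 0.001-1 μM final. RIPA lysates quantified by BCA, then MerTK probed by Western blot against actin loading control with IR-dye secondaries and Odyssey imaging.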

Row | SMILES | Dmax [%]
1 | O=C1CC[C@H](n2c3ccc(CCCOCCOCCN4CCN(Cc5ccc(-c6cn([C@H]7CC[C@H](O)CC7)c7nc(NCCC(F)(F)F)ncc67)cc5)CC4)cc3c3cccnc32)C(=O)N1 [I-125, 3-(6-[3-[2-(2-[4-[(4-[7-[trans-4-hydroxycyclohexyl]-2-[(3,3,3-trifluoropropyl)amino]-7H-pyrrolo[2,3-d]pyrimidin-5-yl]phenyl)methyl]piperazin-1-yl]ethoxy)ethoxy]propyl]-9H-pyrido[2,3-b]indol-9-y1)piperidine-2,6-dione] | > 50
2 | Cn1c(=O)n([C@H]2CCC(=O)NC2=O)c2ccc(CCN3CC(OCCN4CCN(Cc5ccc(-c6cn([C@H]7CC[C@H](O)CC7)c7nc(NCCC(F)(F)F)ncc67)cc5)CC4)C3)cc21 [I-128, 3-(3-methyl-2-oxo-5-[2-[3-(2-[4-[(4-[7-[trans-4-hydroxycyclohexyl]-2-[(3,3,3-trifluoropropyl)amino]pyrrolo[2,3-d]pyrimidin-5-yl]phenyl)methyl]piperazin-1-yl]ethoxy)azetidin-1-yl]ethyl]-1,3-benzodiazol-1-y1)piperidine-2,6-dione] | 20 to 50
3 | Cn1c(=O)n([C@H]2CCC(=O)NC2=O)c2ccc(CCOCCN3CC(N4CCN(Cc5ccc(-c6cn([C@H]7CC[C@H](O)CC7)c7nc(NCCC(F)(F)F)ncc67)cc5)CC4)C3)cc21 [I-129, 3-(3-methyl-2-oxo-5-[2-[2-(3-[4-[(4-[7-[trans-4-hydroxycyclohexy1]-2-[(3,3,3-trifluoropropyl)amino]-7H-pyrrolo[2,3-d]pyrimidin-5-y1]phenyl)methyl]piperazin-1-yl]azetidin-1-yl)ethoxy]ethyl]-2,3-dihydro-1H-1,3-benzodiazol-1-y1)piperidine-2,6-dione; formic acid] | > 50
4 | Cn1c(=O)n(C2CCC(=O)NC2=O)c2ccc(CCOCCN3CCCC(N4CCN(Cc5ccc(-c6cn([C@H]7CC[C@H](O)CC7)c7nc(NCCC(F)(F)F)ncc67)cc5)CC4)C3)cc21 (stereo partly drawn) [I-131, 3-(3-methyl-2-oxo-5-[2-[2-(3-[4-[(4-[7-[trans-4-hydroxycyclohexyl]-2-[(3,3,3-trifluoropropyl)amino]-7H-pyrrolo[2,3-d]pyrimidin-5-yl]phenyl)methyl]piperazin-1-y1]piperidin-1-yl)ethoxy]ethyl]-2,3-dihydro-1H-1,3-benzodiazol-1-y1)piperidine-2,6-dione; formic acid] | > 50
5 | Cn1c(=O)n(C2CCC(=O)NC2=O)c2ccc(CCOCCN3CCC(N4CCN(Cc5ccc(-c6cn([C@H]7CC[C@H](O)CC7)c7nc(NCCC(F)(F)F)ncc67)cc5)CC4)C3)cc21 (stereo partly drawn) [I-132, 3-(3-methyl-2-oxo-5-[2-[2-(3-[4-[(4-[7-[trans-4-hydroxycyclohexyl]-2-[(3,3,3-trifluoropropyl)amino]-7H-pyrrolo[2,3-d]pyrimidin-5-yl]phenyl)methyl]piperazin-1-yl]pyrrolidin-1-yl)ethoxy]ethyl]-2,3-dihydro-1H-1,3-benzodiazol-1-yl)piperidine-2,6-dione] | > 50
6 | Cn1c(=O)n([C@H]2CCC(=O)NC2=O)c2ccc(CCCN3CC(C4CCN(Cc5ccc(-c6cn([C@H]7CC[C@H](O)CC7)c7nc(NCCC(F)(F)F)ncc67)cc5)CC4)C3)cc21 [I-136, 3-[3-methyl-2-oxo-5-[3-(3-[1-[(4-[7-[trans-4-hydroxycyclohexyl]-2-[(3,3,3-trifluoropropyl)amino]pyrrolo[2,3-d]pyrimidin-5-yl]phenyl)methyl]piperidin-4-yl]azetidin-1-yl)propyl]-1,3-benzodiazol-1-y1]piperidine-2,6-dione; tris(formic acid)] | > 50

More lines, now with the values ahead:

Row | Dmax [%] | SMILES
7 | > 50 | O=C1CC[C@H](n2c3ccccc3c3c(CCCOCCOCCN4CCN(Cc5ccc(-c6cn([C@H]7CC[C@H](O)CC7)c7nc(NCCC(F)(F)F)ncc67)cc5)CC4)ccnc32)C(=O)N1 [I-126, 3-(4-[3-[2-(2-[4-[(4-[7-[trans-4-hydroxycyclohexyl]-2-[(3,3,3-trifluoropropyl)amino]-7H-pyrrolo[2,3-d]pyrimidin-5-yl]phenyl)methyl]piperazin-1-yl]ethoxy)ethoxy]propyl]-9H-pyrido[2,3-b]indol-9-yl)piperidine-2,6-dione]
8 | 20 to 50 | O=C1CC[C@H](n2c3cc(CCCOCCOCCN4CCN(Cc5ccc(-c6cn([C@H]7CC[C@H](O)CC7)c7nc(NCCC(F)(F)F)ncc67)cc5)CC4)ccc3c3cccnc32)C(=O)N1 [I-127, 3-(7-[3-[2-(2-[4-[(4-[7-[trans-4-hydroxycyclohexy1]-2-[(3,3,3-trifluoropropyl)amino]-7H-pyrrolo[2,3-d]pyrimidin-5-yl]phenyl)methyl]piperazin-1-yl]ethoxy)ethoxy]propyl]-9H-pyrido[2,3-b]indol-9-yl)piperidine-2,6-dione]
9 | > 50 | Cn1c(=O)n([C@H]2CCC(=O)NC2=O)c2ccc(CCOCCN3CCC(N4CCN(Cc5ccc(-c6cn([C@H]7CC[C@H](O)CC7)c7nc(NCCC(F)(F)F)ncc67)cc5)CC4)CC3)cc21 [I-130, 3-(3-methyl-2-oxo-5-[2-[2-(4-[4-[(4-[7-[trans-4-hydroxycyclohexyl]-2-[(3,3,3-trifluoropropyl)amino]-7H-pyrrolo[2,3-d]pyrimidin-5-yl]phenyl)methyl]piperazin-1-yl]piperidin-1-y1)ethoxy]ethyl]-2,3-dihydro-1H-1,3-benzodiazol-1-y1)piperidine-2,6-dione]
10 | > 50 | O=C1CC[C@H](n2c3ccc(NCCOCCOCCN4CCN(Cc5ccc(-c6cn([C@H]7CC[C@H](O)CC7)c7nc(NCCC(F)(F)F)ncc67)cc5)CC4)cc3c3cccnc32)C(=O)N1 [I-133, 3-[6-([2-[2-(2-[4-[(4-[7-[trans-4-hydroxycyclohexyl]-2-[(3,3,3-trifluoropropyl)amino]pyrrolo[2,3-d]pyrimidin-5-yl]phenyl)methyl]piperazin-1-yl]ethoxy)ethoxy]ethyl]amino)pyrido[2,3-b]indol-9-yl]piperidine-2,6-dione; formic acid]
11 | > 50 | O=C1CC[C@H](n2c3cccc(CCCOCCOCCN4CCN(Cc5ccc(-c6cn([C@H]7CC[C@H](O)CC7)c7nc(NCCC(F)(F)F)ncc67)cc5)CC4)c3c3cccnc32)C(=O)N1 [I-134, 3-(5-[3-[2-(2-[4-[(4-[7-[trans-4-hydroxycyclohexy1]-2-[(3,3,3-trifluoropropyl)amino]pyrrolo[2,3-d]pyrimidin-5-yl]phenyl)methyl]piperazin-1-yl]ethoxy)ethoxy]propyl]pyrido[2,3-b]indol-9-y1)piperidine-2,6-dione]
12 | > 50 | Cn1c(=O)n([C@H]2CCC(=O)NC2=O)c2cccc(CCCOCCOCCN3CCN(Cc4ccc(-c5cn([C@H]6CC[C@H](O)CC6)c6nc(NCCC(F)(F)F)ncc56)cc4)CC3)c21 [I-135, 3-(3-methyl-2-oxo-4-[3-[2-(2-[4-[(4-[7-[trans-4-hydroxycyclohexyl]-2-[(3,3,3-trifluoropropyl)amino]pyrrolo[2,3-d]pyrimidin-5-yl]phenyl)methyl]piperazin-1-yl]ethoxy)ethoxy]propyl]-1,3-benzodiazol-1-y1)piperidine-2,6-dione]
13 | > 50 | Cn1c(=O)n([C@H]2CCC(=O)NC2=O)c2ccc(CCCN3CCC(C4CCN(Cc5ccc(-c6cn([C@H]7CC[C@H](O)CC7)c7nc(NCCC(F)(F)F)ncc67)cc5)CC4)CC3)cc21 [I-137, 3-[3-methyl-2-oxo-5-(3-[1-[(4-[7-[trans-4-hydroxycyclohexyl]-2-[(3,3,3-trifluoropropyl)amino]pyrrolo[2,3-d]pyrimidin-5-yl]phenyl)methyl]-[4,4-bipiperidin]-1-y1]propyl)-1,3-benzodiazol-1-yl]piperidine-2,6-dione]
14 | > 50 | Cn1c(=O)n([C@H]2CCC(=O)NC2=O)c2cccc(CCCOCCCN3CCN(Cc4ccc(-c5cn([C@H]6CC[C@H](O)CC6)c6nc(NCCC(F)(F)F)ncc56)cc4)CC3)c21 [I-138, 3-[3-methyl-2-oxo-4-[3-(3-[4-[(4-[7-[trans-4-hydroxycyclohexy1]-2-[(3,3,3-trifluoropropyl)amino]pyrrolo[2,3-d]pyrimidin-5-yl]phenyl)methyl]piperazin-1-yl]propoxy)propyl]-1,3-benzodiazol-1-yl]piperidine-2,6-dione]
15 | > 50 | Cn1c(=O)n([C@H]2CCC(=O)NC2=O)c2ccc(CCCOCCCN3CCN(Cc4cccc(-c5cn([C@H]6CC[C@H](O)CC6)c6nc(NCCC(F)(F)F)ncc56)c4)CC3)cc21 [I-139, 3-[3-methyl-2-oxo-5-[3-(3-[4-[(3-[7-[trans-4-hydroxycyclohexyl]-2-[(3,3,3-trifluoropropyl)amino]pyrrolo[2,3-d]pyrimidin-5-yl]phenyl)methyl]piperazin-1-yl]propoxy)propy1]-1,3-benzodiazol-1-yl]piperidine-2,6-dione]
